Measurements taken from patent publication US5098920A, “1H-substituted-1,2,4-triazole compounds and methods of use thereof for treatment of cardiovascular disorders” (G. D. Searle & Co., priority 1990, dated 1992).
Where two headings read alike, the source gives them in different places.

How the values were obtained:
angiotensin II receptor = conditions: cited from earlier work; for angiotensin II antagonist activity: binding experiments, functional assays and in vivo tests, literature
rabbit aortic rings = assay: Assay B: In Vitro Vascular Smooth Muscle-Response for AII (antagonist activity in rabbit aortic rings); type: cell-based, rabbit (male New Zealand white); conditions: Oryctolagus cuniculus, rabbit aorta rings, antagonist at 10^-5 M, read-out: PA2 (converted)
Description: Assay B: In Vitro Vascular Smooth Muscle-Response for AII The compounds of the invention were tested for antagonist activity in rabbit aortic rings. Male New Zealand white rabbits (2-2.5 kg) were sacrificed using an overdose of pentobarbital and exsanguinated via the carotid arteries. The thoracic aorta was removed, cleaned of adherent fat and connective tissue and then cut into 3-mm ring segments. The endothelium was removed from the rings by gently sliding a rolled-up piece of filter paper into the vessel lumen. The rings were then mounted in a water-jacketed tissue bath, maintained at 37° C., between moveable and fixed ends of a stainless steel wire with the moveable end attached to an FTO3 Grass transducer coupled to a Model 7D Grass Polygraph for recording isometric force responses. […] The preparations were equilibrated for one hour before approximately one gram of passive tension was placed on the rings. Angiotensin II concentration-response curves were then recorded (3×10^-10 to 1×10^-5 M). Each concentration of AII was allowed to elicit its maximal contraction, and then AII was washed out repeatedly for 30 minutes before rechallenging with a higher concentration of AII. Aorta rings were exposed to the test antagonist at 10^-5 M for 5 minutes before challenging with AII. Adjacent segments of the same aorta ring were used for all concentration-response curves in the presence or absence of the test antagonist. The effectiveness of the test compound was expressed in terms of pA2 values and were calculated according to H. O. Schild [Br. J. Pharmacol. Chemother., 2, 189-206 (1947)]. […] Each test antagonist was evaluated in aorta rings from two rabbits.

AII pressor response = assay: Assay C: In Vivo Intraduodenal Pressor Assay Response for AII Antagonists; design: species or system rat (male Sprague-Dawley); conditions: rats; for Inhibition: percent inhibition of AII (30 ng/kg i.v.) pressor response; for Duration: time from peak percent inhibition to 50% of peak
Description: Assay C: In Vivo Intraduodenal Pressor Assay Response for AII Antagonists
Male Sprague-Dawley rats weighing 225-300 grams were anesthetized with Inactin (100 mg/kg, i.p.) and catheters were implanted into the trachea, femoral artery, femoral vein and duodenum. Arterial pressure was recorded from the femoral artery catheter on a Gould chart recorder (Gould, Cleveland, Ohio). The fe:moral vein catheter was used for injections of angiotensin II, mecamylamine and atropine. The tracheal cathete'r allows for airway patency, and the duodenal catheter was used for intraduodenal (i.d.) administration of test compounds. After surgery, the rats were allowed to equilibrate for 30 minutes. Mecamylamine (3 mg/kg, 0.3 ml/kg) and atropine (400 ug/kg, 0.3 ml/kg) were then given i.v. to produce ganglion blockade. These compounds were administered every 90 minutes throughout the test procedure. Angiotensin II was given in bolus does i.v. (30 ng/kg in saline with 0.5% bovine serum albumin, 0.1 ml/kg) every 10 minutes three times or until the increase in arterial pressure produced was within 3 mmHg for two consecutive AII injections. The last two AII injections were averaged and were taken as the control AII pressor response. Ten minutes after the final control AII injection, the test compound (dissolved in sodium bicarbonate) was administered i.d. at a dose of 30 or 100 mg/kg in a volume of 0.2 ml. Angiotensin II injections were then given 5, 10, 20, 30, 45, 60, 75, 90, and 120 minutes after administration of the test compound and response of arterial pressure was monitored. The response to AII was calculated as percent of the control response and then the percent inhibition is calculated as 100 minus the percent control response. Duration of action of a test compound was defined as the time from peak percent inhibition to 50% of peak. One compound at one dose was tested in each rat. Each test compound was tested in two rats and the values for the two rats were averaged.

[1] = target: smooth muscle angiotensin II receptor; assay: Assay A: Angiotensin II Binding Activity (displacement of 125I-AII, rat uterine membrane preparation); conditions: 50% displacement of specifically bound 125I-AII; rat uterine membranes; 25° C., 60 min
Description: Assay A: Angiotensin II Binding Activity
Compounds of the invention were tested for ability to bind to the smooth muscle angiotensin II receptor using a rat uterine membrane preparation. […] Other chemicals were obtained from Sigma Chemical Co. This assay was carried out according to the method of Douglas et al [Endocrinology, 106, 120-124 (1980)]. Rat uterine membranes were prepared from fresh tissue. All procedures were carried out at 4° C. Uteri were stripped of fat and homogenized in phosphate-buffered saline at pH 7.4 containing 5 mM EDTA. The homogenate was centrifuged at 1500×g for 20 min., and the supernatant was recentrifuged at 100,000×g for 60 min. The pellet was resuspended in buffer consisting of 2 mM EDTA and 50 mM Tris-HCl (pH 7.5) to a final protein concentration of 4 mg/ml. […] The reaction was initiated by the addition of membrane protein and the mixture was incubated at 25° C. for 60 min. The incubation was terminated with ice-cold 50 mM Tris-HCl (pH 7.5) and the mixture was filtered to separate membrane-bound labelled peptide from the free ligand. The incubation tube and filter were washed with ice-cold buffer. Filters were assayed for radioactivity in a Micromedic gamma counter. Nonspecific binding was defined as binding in the presence of 10 μM of unlabelled AII. Specific binding was calculated as total binding minus nonspecific binding. […] Binding data were aralyzed by a nonlinear least-squares curve fitting program.

[2] = only printed value, or first of two printed values

IC50 [1] [nM] | Compound | Kb (rabbit aortic rings; [2]) [nM] | Kb (rabbit aortic rings; second of two values) [nM] | further results
1700 | CCCCc1nc(Cl)n(Cc2ccc(-c3ccccc3C(=O)O)cc2)n1 [Example 8, 4'-[(3-butyl-5-chloro-1H-1,2,4-triazol-1-yl)methyl][1,1'-biphenyl]-2-carboxylic acid] | – | – | –
700 | CCCCc1nc(Cl)n(Cc2ccc(-c3ccccc3-c3nnn[nH]3)cc2)n1 [Example 9] | 40.7 | – | Inhibition (AII pressor response; 30 mg/kg i.d.): 100%; Duration (AII pressor response; 30 mg/kg i.d.): 230 min
4.9 | CCCCc1nc(C(F)(F)CCC)nn1Cc1ccc(-c2ccccc2-c2nnn[nH]2)cc1 [Example 10, 5-[4'-[[5-butyl-3-(1,1-difluorobutyl)-1H-1,2,4-triazol-1-yl]methyl][1,1'-biphenyl]-2-yl]-1H-tetrazole] | 6.46 | 25.7 | Inhibition (AII pressor response; 30 mg/kg i.d.): 100%; Duration (AII pressor response; 30 mg/kg i.d.): 240 min
160 | CCCCc1nc(C(F)(F)CCC)n(Cc2ccc(-c3ccccc3-c3nnn[nH]3)cc2)n1 [Example 11, 5-[4'-[[3-butyl-5-(1,1-difluorobutyl)-1H-1,2,4-triazol-1-yl]methyl][1,1'-biphenyl]-2-yl]-1H-tetrazole] | 355 | 170 | –
6 | CCCc1nc(CCC)n(Cc2ccc(-c3ccccc3-c3nnn[nH]3)cc2)n1 [Example 12, 5-[4'-[(3,5-dipropyl-1H-1,2,4-triazol-1-yl)methyl][1,1'-biphenyl]-2-yl]-1H-tetrazole] | 2.19 | 2.57 | –
7.2 | CCCCc1nc(CCC)nn1Cc1ccc(-c2ccccc2-c2nnn[nH]2)cc1 [Example 14, 5-[4'-[(5-butyl-3-propyl-1H-1,2,4-triazol-1-yl)methyl]-[1,1'-biphenyl]-2-yl]-1H-tetrazole] | 1.45 | 1.95 | –
16 | CCCCc1nc(CCC)n(Cc2ccc(-c3ccccc3-c3nnn[nH]3)cc2)n1 [Example 15, 5-[4'-[(3-butyl-5-propyl-1H-1,2,4-triazol-1-yl)methyl]-[1,1'-biphenyl]-2-yl]-1H-tetrazole] | 4.9 | 5.01 | –
6.4 | CCCCc1nc(CCC(C)C)n(Cc2ccc(-c3ccccc3-c3nnn[nH]3)cc2)n1 [Example 16, 5-[4'-[(3-butyl-5-isopentyl-1H-1,2,4-triazol-1-yl)methyl]-[1,1'-biphenyl]-2-yl]-1H-tetrazole] | 1.12 | 0.575 | –
4 | CCCCc1nc(CCC(C)C)nn1Cc1ccc(-c2ccccc2-c2nnn[nH]2)cc1 [Example 17, 5-[4'-[(5-butyl-3-isopentyl-1H-1,2,4-triazol-1-yl]methyl)[1,1'-biphenyl]-2-yl]-1H-tetrazole] | 2.29 | 3.98 | –

Further lines, the molecule ahead of its results:

Compound | IC50 [1] [nM] | Kb (rabbit aortic rings; [2]) [nM] | Kb (rabbit aortic rings; second of two values) [nM] | further results
CCCCc1nc(Cl)c(CC(=O)O)n1Cc1ccccc1[N+](=O)[O-] [2-butyl-4-chloro-1-(2-nitrobenzyl)imidazole-5-acetic acid] | – | – | – | angiotensin II antagonist activity (angiotensin II receptor): specific competitive angiotensin II antagonist activity
CCCCc1nc(Cl)c(CC(=O)O)n1Cc1ccccc1Cl [2-n-butyl-4-chloro-1-(2-chlorobenzyl)imidazole-5-acetic acid] | – | – | – | angiotensin II antagonist activity (angiotensin II receptor): specific competitive angiotensin II antagonist activity
CCCCc1nc(CCCC)n(Cc2ccc(-c3ccccc3C(=O)O)cc2)n1 [Example 2, 4'-[(3,5-dibutyl-1H-1,2.4-triazol-1-yl)methyl][1,1'-biphenyl]-2-carboxylic acid] | – | 33.1 | – | Inhibition (AII pressor response; 30 mg/kg i.d.): 98%
CCCCc1nc(CCCC)n(Cc2ccc(-c3ccccc3-c3nnn[nH]3)cc2)n1 [Example 3, 5-[4'-[(3,5-dibutyl-1H-1,2,4-triazol-1-yl)methyl][1,1'-biphenyl]2-yl]-1H-tetrazole] | 5.4 | 2 | – | Inhibition (AII pressor response; 30 mg/kg i.d.): 100%; Duration (AII pressor response; 30 mg/kg i.d.): ≥ 200 min
CCCCc1nc(CCCC)n(Cc2ccc(-c3ccccc3C(=O)NNS(=O)(=O)C(F)(F)F)cc2)n1 [Example 5, 4'-[(3,5-dibutyl-1H-1,2,4-triazol-1-yl)methyl][1,1'-biphenyl]-2-carboxylicacid, 2-[(trifluoromethyl)sulfonyl]hydrazide] | 200 | 63.1 | – | Inhibition (AII pressor response; 100 mg/kg i.d.): 38%; Duration (AII pressor response; 100 mg/kg i.d.): 20 to 30 min
CCCCc1nc(Cl)nn1Cc1ccc(-c2ccccc2C(=O)O)cc1 [Example 6, 4'-[(5-butyl-3-chloro-1H-1,2,4-triazol-1-yl)methyl][1,1'-biphenyl]-2-carboxylic acid] | – | 204 | – | Inhibition (AII pressor response; 100 mg/kg i.d.): 90%; Duration (AII pressor response; 100 mg/kg i.d.): 120 min
CCCCc1nc(Cl)nn1Cc1ccc(-c2ccccc2-c2nnn[nH]2)cc1 [Example 7] | 84 | 9.33 | – | –
CCCCCc1nc(CCCCC)n(Cc2ccc(-c3ccccc3-c3nnn[nH]3)cc2)n1 [Example 13, 5-[4'-[(3,5-dipentyl-1H-1,2,4-triazol-1-yl)methyl][1,1'-biphenyl]-2-yl]-1H-tetrazole] | – | 2 | 1.41 | –
CNCC(=O)N[C@@H](CCCN=C(N)N)C(=O)N[C@H](C(=O)N[C@@H](Cc1ccc(O)cc1)C(=O)N[C@H](C(=O)N[C@@H](Cc1cnc[nH]1)C(=O)N1CCC[C@H]1C(=O)N[C@@H](C)C(=O)O)C(C)C)C(C)C [Saralasin] | – | – | – | residual agonist activity (angiotensin II receptor; background statement): significant residual agonist activity
